Test results reported in publication PMC4194234 (Psychopharmacology, 2014).
Like-named read-outs stand apart in the source and are kept apart here.

What was measured:
5-HT2A receptor [1] = molecular target: T1, 5-HT2A receptor (Homo sapiens, UniProt P28223); assay: cell-based; type: cell-based; conditions: for 5-HT2A agonist activity in calcium mobilization assay (in words) / 5-HT2A Emax: HEK293; for Emax: HEK293, read-out: 5-HT2A Emax; for 5-HT2A Emax: calcium mobilization, mean ± SEM, three experiments in duplicate
Target sequence in this assay (P28223 whole entry): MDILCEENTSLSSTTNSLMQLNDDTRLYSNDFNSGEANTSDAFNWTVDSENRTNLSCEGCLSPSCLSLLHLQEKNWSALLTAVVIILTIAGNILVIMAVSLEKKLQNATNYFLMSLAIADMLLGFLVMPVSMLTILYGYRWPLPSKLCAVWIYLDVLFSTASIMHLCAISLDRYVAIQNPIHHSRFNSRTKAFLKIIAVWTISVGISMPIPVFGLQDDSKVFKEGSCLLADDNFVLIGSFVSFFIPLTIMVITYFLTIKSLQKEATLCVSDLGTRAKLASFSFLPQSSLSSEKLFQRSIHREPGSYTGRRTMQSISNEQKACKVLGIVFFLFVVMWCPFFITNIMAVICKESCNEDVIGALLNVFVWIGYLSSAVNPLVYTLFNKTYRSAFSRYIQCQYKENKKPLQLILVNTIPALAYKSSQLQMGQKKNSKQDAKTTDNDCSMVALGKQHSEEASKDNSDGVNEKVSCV

humans = conditions: tabulated from anecdotal reports in TiHKAL, ref Shulgin and Shulgin 1997; cited from earlier work
SERT [2] = molecular target: T2, SERT (Rattus norvegicus, UniProt P31652); assay: [3H]5-HT uptake inhibition, rat brain synaptosomes; conditions: for 5-HT uptake inhibitor activity at SERT (in words): rat brain synaptosomes
T2 sequence (P31652 whole entry): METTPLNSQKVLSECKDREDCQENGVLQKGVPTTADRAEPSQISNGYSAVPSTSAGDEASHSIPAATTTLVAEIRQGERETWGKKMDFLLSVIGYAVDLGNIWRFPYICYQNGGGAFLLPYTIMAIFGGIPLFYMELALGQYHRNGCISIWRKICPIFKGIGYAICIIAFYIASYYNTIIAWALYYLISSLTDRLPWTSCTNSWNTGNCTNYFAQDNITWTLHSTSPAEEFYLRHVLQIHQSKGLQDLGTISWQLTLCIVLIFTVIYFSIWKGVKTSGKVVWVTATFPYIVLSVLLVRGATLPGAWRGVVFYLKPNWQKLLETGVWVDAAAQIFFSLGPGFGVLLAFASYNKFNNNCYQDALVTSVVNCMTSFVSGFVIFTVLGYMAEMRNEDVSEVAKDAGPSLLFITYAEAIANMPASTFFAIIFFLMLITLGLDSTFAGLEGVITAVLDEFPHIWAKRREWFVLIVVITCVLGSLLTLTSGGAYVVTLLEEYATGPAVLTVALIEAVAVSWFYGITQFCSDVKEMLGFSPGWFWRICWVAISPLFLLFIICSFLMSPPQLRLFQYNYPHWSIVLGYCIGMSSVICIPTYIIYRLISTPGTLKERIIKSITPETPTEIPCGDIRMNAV

[3] = molecular target: T3, Dopamine Transporter (DAT) (Rattus norvegicus, UniProt P23977); assay: [3H]DA uptake inhibition, rat striatum synaptosomes
T3 sequence (P23977 whole entry): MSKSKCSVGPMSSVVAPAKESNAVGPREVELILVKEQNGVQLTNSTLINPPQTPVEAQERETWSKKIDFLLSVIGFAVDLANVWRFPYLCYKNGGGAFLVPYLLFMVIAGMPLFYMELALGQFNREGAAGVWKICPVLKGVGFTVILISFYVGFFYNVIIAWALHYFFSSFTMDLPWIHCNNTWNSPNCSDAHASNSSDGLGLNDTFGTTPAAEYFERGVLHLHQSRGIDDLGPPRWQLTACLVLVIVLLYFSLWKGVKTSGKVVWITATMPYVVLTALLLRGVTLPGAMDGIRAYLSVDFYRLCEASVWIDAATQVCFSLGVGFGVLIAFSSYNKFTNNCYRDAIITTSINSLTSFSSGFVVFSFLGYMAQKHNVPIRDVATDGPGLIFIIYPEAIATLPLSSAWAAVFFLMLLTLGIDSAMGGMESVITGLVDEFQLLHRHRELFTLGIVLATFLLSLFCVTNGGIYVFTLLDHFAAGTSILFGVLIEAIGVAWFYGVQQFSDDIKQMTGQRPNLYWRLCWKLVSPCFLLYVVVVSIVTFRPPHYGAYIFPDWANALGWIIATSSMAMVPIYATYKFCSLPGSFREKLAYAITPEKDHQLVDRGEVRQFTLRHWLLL

5-HT1A receptor = molecular target: T4, 5-HT1A receptor (Homo sapiens, UniProt P08908); assay: 5-HT1A calcium mobilization assay in Gα16-CHO cells; type: cell-based; conditions: for 5-HT1A Emax: calcium mobilization, Gα16-CHO, mean ± SEM, three experiments in duplicate
T4 sequence (P08908 1-422): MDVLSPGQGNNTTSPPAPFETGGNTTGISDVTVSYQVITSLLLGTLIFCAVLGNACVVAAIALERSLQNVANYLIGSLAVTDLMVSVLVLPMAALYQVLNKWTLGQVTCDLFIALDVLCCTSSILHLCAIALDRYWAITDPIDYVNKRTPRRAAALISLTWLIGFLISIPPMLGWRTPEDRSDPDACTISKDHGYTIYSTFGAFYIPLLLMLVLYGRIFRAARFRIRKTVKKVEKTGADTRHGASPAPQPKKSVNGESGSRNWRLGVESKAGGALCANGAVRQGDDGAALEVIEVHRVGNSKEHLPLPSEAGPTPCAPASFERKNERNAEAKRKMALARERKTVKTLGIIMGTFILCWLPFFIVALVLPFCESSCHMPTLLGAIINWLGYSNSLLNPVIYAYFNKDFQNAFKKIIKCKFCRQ

[4] = molecular target: T5, Norepinephrine Transporter (NET) (Rattus norvegicus, UniProt Q63380); assay: [3H]NE uptake inhibition, rat brain synaptosomes; type: biochemical
T5 sequence (Q63380 1-617): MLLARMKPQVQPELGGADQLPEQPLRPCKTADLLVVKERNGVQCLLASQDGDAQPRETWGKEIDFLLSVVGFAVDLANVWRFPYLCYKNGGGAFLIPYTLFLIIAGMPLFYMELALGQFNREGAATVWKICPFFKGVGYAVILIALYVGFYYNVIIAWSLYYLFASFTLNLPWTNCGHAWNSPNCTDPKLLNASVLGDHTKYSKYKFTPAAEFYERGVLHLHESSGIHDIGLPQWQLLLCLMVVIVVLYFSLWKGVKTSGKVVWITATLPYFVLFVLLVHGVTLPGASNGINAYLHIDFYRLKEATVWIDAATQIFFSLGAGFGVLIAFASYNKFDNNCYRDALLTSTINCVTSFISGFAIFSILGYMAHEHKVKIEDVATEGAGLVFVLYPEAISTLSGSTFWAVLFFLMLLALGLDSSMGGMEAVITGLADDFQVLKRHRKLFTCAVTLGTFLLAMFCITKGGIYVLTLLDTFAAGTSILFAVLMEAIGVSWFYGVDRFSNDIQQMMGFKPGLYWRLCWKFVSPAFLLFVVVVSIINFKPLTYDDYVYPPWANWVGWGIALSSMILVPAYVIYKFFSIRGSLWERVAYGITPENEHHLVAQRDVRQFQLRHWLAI

5-HT2A receptor [5] = molecular target: T1, 5-HT2A receptor; assay: cell-based; type: cell-based; conditions: for Emax: CHO-K1, read-out: 5-HT2A β-arrestin Emax; for 5-HT2A β-arrestin recruitment activity (in words) / 5-HT2A β-arrestin Emax: CHOk1; for 5-HT2A β-arrestin recruitment activity (in words): screened at 10 µM; for 5-HT2A β-arrestin Emax: β-arrestin recruitment, mean ± SEM, three experiments in duplicate
Target sequence in this assay (P28223 whole entry): as the sequence (P28223 whole entry) above
Target sequence in this assay (P32121 whole entry, further chain): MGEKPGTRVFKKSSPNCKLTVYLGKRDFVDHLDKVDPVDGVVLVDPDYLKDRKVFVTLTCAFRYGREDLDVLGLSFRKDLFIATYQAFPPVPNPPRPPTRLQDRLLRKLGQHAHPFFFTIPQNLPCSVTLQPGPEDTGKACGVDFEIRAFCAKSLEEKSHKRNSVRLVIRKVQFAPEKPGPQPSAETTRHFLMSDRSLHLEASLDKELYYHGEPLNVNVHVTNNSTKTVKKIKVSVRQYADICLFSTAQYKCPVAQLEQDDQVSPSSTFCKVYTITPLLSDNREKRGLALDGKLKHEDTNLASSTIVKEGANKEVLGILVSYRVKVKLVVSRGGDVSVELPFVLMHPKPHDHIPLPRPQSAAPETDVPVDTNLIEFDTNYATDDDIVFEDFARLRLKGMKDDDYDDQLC

[6] = molecular target: T5, Norepinephrine Transporter (NET); assay: NET-mediated release, rat brain synaptosomes; type: biochemical
[7] = molecular target: T3, Dopamine Transporter (DAT); assay: DAT-mediated release, rat striatum synaptosomes
SERT [8] = molecular target: T2, SERT; assay: SERT-mediated release, rat brain synaptosomes; conditions: for 5-HT releasing activity at SERT (in words): rat brain synaptosomes

COc1ccc2[nH]cc(CCN(C(C)C)C(C)C)c2c1 [Compound 1, N,N-diisopropyl-5-methoxytryptamine]
5-HT2A agonist activity in calcium mobilization assay (in words) (5-HT2A receptor [1]): low nanomolar potency | Emax (5-HT2A receptor [1]): 109 ± 5% | Psychoactive Effects (humans): Erotic, senses distorted, short-lived, could not make intuitive leaps | IC50 (SERT [2]): 646 ± 48 nM | IC50 [3]: > 10 µM | EC50 (5-HT1A receptor): > 10000 nM | IC50 [4]: > 10 µM | Emax (5-HT2A receptor [5]): 124 ± 12%

COc1ccc2[nH]cc(CCN(C)C(C)C)c2c1 [Compound 2, N-isopropyl-N-methyl-5-methoxytryptamine]
5-HT2A agonist activity in calcium mobilization assay (in words) (5-HT2A receptor [1]): low nanomolar potency | Emax (5-HT2A receptor [1]): 101 ± 3% | Psychoactive Effects (humans): Fast onset, stimulates conceptual thought, depersonalization | IC50 (SERT [2]): > 10000 nM | 5-HT uptake inhibitor activity at SERT (in words) (SERT [2]): totally inactive | IC50 [3]: > 10 µM | EC50 (5-HT1A receptor): > 10000 nM | IC50 [4]: > 10 µM | EC50 (5-HT2A receptor [5]): 566 ± 110 nM | Emax (5-HT2A receptor [5]): 82 ± 13%

CN(C)CCc1c[nH]c2ccccc12 [Compound 6, N,N-dimethyltryptamine]
Emax (5-HT2A receptor [1]): 83 ± 0.4% | EC50 [6]: 4.17 ± 0.317 µM | Psychoactive Effects (humans): Heavy intoxicant and hallucinogen, visuals, intense colors | EC50 [7]: > 10 µM | EC50 (SERT [8]): 114 ± 15 nM | EC50 (5-HT2A receptor [5]): > 10000 nM | 5-HT2A β-arrestin recruitment activity (in words) (5-HT2A receptor [5]): inactive

COc1ccc2[nH]cc(CCN(C)C)c2c1 [Compound 7, N,N-dimethyl-5-methoxytryptamine]
5-HT2A agonist activity in calcium mobilization assay (in words) (5-HT2A receptor [1]): low nanomolar potency | Emax (5-HT2A receptor [1]): 101 ± 4% | Psychoactive Effects (humans): Time distortions, stoned feeling, hallucinogenic at high doses | IC50 (SERT [2]): 2180 ± 222 nM | IC50 [3]: > 10 µM | 5-HT1A Emax (5-HT1A receptor): 68 ± 3% | IC50 [4]: > 10 µM | Emax (5-HT2A receptor [5]): 56 ± 6%

NCCc1c[nH]c2ccccc12 [Compound 12, Tryptamine]
Psychoactive Effects (humans): Psychoactive, short acting due to metabolism, increased blood pressure, similar to LSD | 5-HT releasing activity at SERT (in words) (SERT [8]): releasers | Emax (5-HT2A receptor [5]): 108 ± 16%

CC(N)Cc1c[nH]c2ccccc12 (stereo not drawn) [Compound 13]
Psychoactive Effects (humans): Psychedelic but varied, fast/slow onset, good/bad experiences, long lasting, no visuals, speed-like, tachycardia, jaw clenching

CNCCc1c[nH]c2ccccc12 [Compound 14, N-methyltryptamine]
EC50 (5-HT1A receptor): > 10000 nM | EC50 (5-HT2A receptor [5]): > 10000 nM | 5-HT2A β-arrestin recruitment activity (in words) (5-HT2A receptor [5]): inactive

CN(C)CCc1c[nH]c2ccc(O)cc12 [Compound 16, N,N-dimethyl-5-hydroxytryptamine]
EC50 [6]: > 10 µM | Psychoactive Effects (humans): Some visuals (lines and dots), tightness in chest, nausea, breathing issues, mind feels crowded | EC50 [7]: > 10 µM | EC50 (5-HT1A receptor): 366 ± 67 nM

CNCCc1c[nH]c2ccc(OC)cc12 [Compound 17]
5-HT2A Emax (5-HT2A receptor [1]): 84 ± 20% | 5-HT1A Emax (5-HT1A receptor): 72 ± 4% | 5-HT releasing activity at SERT (in words) (SERT [8]): releasers | 5-HT2A β-arrestin Emax (5-HT2A receptor [5]): 66 ± 9%

CCNCCc1c[nH]c2ccc(OC)cc12 [Compound 18, 5-methoxy-N-ethyltryptamine]
Emax (5-HT2A receptor [1]): 112 ± 3% | EC50 [6]: > 10 µM | EC50 [7]: > 10 µM | EC50 (5-HT1A receptor): 262 ± 27 nM | EC50 (SERT [8]): 284 ± 41.6 nM | 5-HT releasing activity at SERT (in words) (SERT [8]): releasers | EC50 (5-HT2A receptor [5]): 568 ± 174 nM | Emax (5-HT2A receptor [5]): 103 ± 12% | 5-HT2A β-arrestin recruitment activity (in words) (5-HT2A receptor [5]): fully efficacious

CCN(CC)CCc1c[nH]c2ccccc12 [Compound 19]
5-HT2A Emax (5-HT2A receptor [1]): 90 ± 6% | Psychoactive Effects (humans): Psychoactive, visuals, vertigo | Fold more potent at SERT uptake inhibition than 5-MeO-DET (SERT [2]; DET versus 5-MeO-DET (26)): 10 fold

CC(C)NCCc1c[nH]c2ccccc12 [Compound 20]
5-HT2A Emax (5-HT2A receptor [1]): 96 ± 3% | Psychoactive Effects (humans): Light-headed intoxicant, pleasant buzz

CCCN(CCC)CCc1c[nH]c2ccccc12 [Compound 21]
5-HT2A Emax (5-HT2A receptor [1]): 97 ± 3% | Psychoactive Effects (humans): Intensely visual, long lasting, things appear fast, religious experiences | 5-HT2A β-arrestin Emax (5-HT2A receptor [5]): 63 ± 8%

CC(C)N(CCc1c[nH]c2ccccc12)C(C)C [Compound 22]
5-HT2A Emax (5-HT2A receptor [1]): 110 ± 2% | Psychoactive Effects (humans): Auditory, not visual, heard voices, sounds had “golden spikes”, religious overtones

CC(C)N(C)CCc1c[nH]c2ccccc12 [Compound 23]
5-HT2A Emax (5-HT2A receptor [1]): 74 ± 5% | Psychoactive Effects (humans): Mild hallucinations, stimulant, fast onset, psychedelic | 5-HT uptake inhibitor activity at SERT (in words) (SERT [2]): totally inactive

CN(C)CCc1c[nH]c2cccc(O)c12 [Compound 24, Psilocin]
Emax (5-HT2A receptor [1]): 76 ± 7% | Psychoactive Effects (humans): Very visual, lots of colors, better at night | IC50 (SERT [2]): 662 ± 41 nM | IC50 [3]: > 10 µM | IC50 [4]: > 10 µM

COc1ccc2[nH]cc(CCN)c2c1 [Compound 25]
Psychoactive Effects (humans): Not particularly active, possibly due to metabolism similar to 12 | 5-HT1A Emax (5-HT1A receptor): 66 ± 4%

CCN(CC)CCc1c[nH]c2ccc(OC)cc12 [Compound 26]
5-HT2A agonist activity in calcium mobilization assay (in words) (5-HT2A receptor [1]): low nanomolar potency | 5-HT2A Emax (5-HT2A receptor [1]): 101 ± 0.8% | Psychoactive Effects (humans): Auditory changes, negative experiences, anxiety | 5-HT1A Emax (5-HT1A receptor): 67 ± 2% | 5-HT2A β-arrestin Emax (5-HT2A receptor [5]): 64 ± 8%

COc1ccc2[nH]cc(CCNC(C)C)c2c1 [Compound 27]
5-HT2A agonist activity in calcium mobilization assay (in words) (5-HT2A receptor [1]): low nanomolar potency | 5-HT2A Emax (5-HT2A receptor [1]): 101 ± 2% | 5-HT2A β-arrestin Emax (5-HT2A receptor [5]): 99 ± 6%

CCCN(CCC)CCc1c[nH]c2ccc(OC)cc12 [Compound 28]
5-HT2A agonist activity in calcium mobilization assay (in words) (5-HT2A receptor [1]): low nanomolar potency | 5-HT2A Emax (5-HT2A receptor [1]): 101 ± 3% | Psychoactive Effects (humans): Comfortable at low doses, oscillating good and bad sounds, negative side dominated as buzz continues | 5-HT1A Emax (5-HT1A receptor): 43 ± 5% | 5-HT2A β-arrestin Emax (5-HT2A receptor [5]): 68 ± 2%
